{
  "source": "patent US20150343038A1",
  "about": "“METHOD AND COMPOSITION FOR TREATING SPASTICITY” (THE REGENTS OF THE UNIVERSITY OF CALIFORNIA, priority 2013, published 2015)",
  "key": {"[1]": {"system": "rats with ischemic spasticity", "settings": "intrathecal baclofen (1 μg elsewhere in the source); previous studies, same spinal ischemia-induced spasticity model; cited from earlier work"}, "spasticity": {"system": "spasticity", "settings": "cited from earlier work; for anti-spasticity effect in clinical studies: systemic (tiagabine: clinically-acceptable doses) or spinal administration"}, "spastic patients": {"system": "spastic patients", "settings": "intrathecal treatment; cited from earlier work"}, "[2]": {"system": "rats with ischemic spasticity", "assay_type": "in vivo, rat"}, "[3]": {"system": "rats with ischemic spasticity", "experiment": "Hoffmann reflex (H-wave amplitude) during high frequency (20 Hz) stimulation", "assay_type": "in vivo, rat", "procedure": "H-reflex was recorded as previously described. Under ketamine anesthesia (100 mg/kg/hr, i.m.) the right hind limb of the animal was secured and a pair of stimulating needle electrodes was transcutaneously inserted into the surroundings of the tibial nerve. For recording, a pair of silver needle electrodes was placed into the interosseous muscles between the fourth and the fifth or the first and the second metatarsal right foot muscles. The tibial nerve was stimulated using square pulses with increasing stimulus intensity (0.1-10 mA in 0.5 mA increments, 0.1 Hz, 0.2 ms; WPI; Isostim A320) and responses were recorded with an A/C-coupled differential amplifier (Model DB4; DPI, Sarasota, Fla.). After the M-max and H-max responses were identified the intensity of stimulus which evoked H-max amplitudes were used in subsequent high frequency (20 Hz) stimulation experiment. In HIV1-CMVGAD65-GFP (n=6) or HIV1-CMV-GFP (n=6) lentivirus-injected animals a high frequency stimulation was performed in 5 min intervals for up to 90 min after tiagabine (40 mg/kg, i.p.) injection. Changes in H-wave amplitude were then compared between both lentivirus-injected groups."}, "[4]": {"system": "lumbar gray matter extracellular GABA", "experiment": "Spinal cord microdialysis, extracellular GABA by HPLC", "assay_type": "in vivo, rat", "settings": "tiagabine 40 mg/kg i.p., at 20-40 min", "procedure": "Spinal cord microdialysis was performed in naive (n=6), spastic-non treated (n=6), spastic HIV1-CMV-GFP lentivirus-injected (n=6) and spastic HIV1-CMV-GAD65-GFP (n=6) lentivirus-injected animals. Rats were anesthetized with 2% isoflurane, previous laminectomy site (in lentivirus injected animals) re-exposed and concentric microdialysis probe (A-2-8-02; cut off: MW 50,000; EICOM, Japan) placed into central gray matter between L3-L6 spinal cord segments. Microdialysis fiber was perfused with artificial CSF at 2 μl/min and samples collected on dry ice. After 120 min washout samples were collected in 20 min intervals before and after tiagabine (40 mg/kg, i.p.) injections and analyzed for GABA using HPLC (HTEC-500; EICOM)."}, "[5]": {"system": "upper extremity motor function", "experiment": "Side effects / upper extremity motor function in treated spastic rats", "assay_type": "in vivo, rat"}, "[6]": {"settings": "human patients; cited from earlier work"}, "[7]": {"settings": "rats; cited from earlier work"}, "brain extracellular GABA": {"system": "brain extracellular GABA", "settings": "after systemic administration of 11.5-21 mg/kg; cited from earlier work"}, "[8]": {"system": "in vitro cultured neurons", "settings": "cited from earlier work"}},
  "note": "Entries after “also recorded” stand apart in the source; their conditions may differ. Where two headings read alike, the source gives them in different places.",
  "data": [
    {"smiles": "NCC(CC(=O)O)c1ccc(Cl)cc1", "note": "(stereo not shown) [baclofen]", "values": [
      {"measurement": "anti-spasticity effect", "setting": "[1]", "result": "potent anti-spasticity effect; also recorded: previously reported anti-spasticity effect"},
      {"measurement": "anti-spasticity effect in clinical studies", "setting": "spasticity", "result": "most potent anti-spasticity pharmacological treatment"},
      {"measurement": "major side effects limiting chronic use", "setting": "spasticity; systemic or spinally-administered", "result": "general sedation and progressive tolerance development"},
      {"measurement": "H-reflex activity", "setting": "spastic patients", "result": "significant suppression of H-reflex activity"}
    ]},
    {"smiles": "Cc1ccsc1C(=CCCN1CCC[C@@H](C(=O)O)C1)c1sccc1C", "note": "[tiagabine]", "values": [
      {"measurement": "time of peak anti-spasticity effect after tiagabine administration", "setting": "[2]; HIV1-CMV-GAD65-GFP-injected spastic rats", "result": 25, "unit": "min"},
      {"measurement": "tiagabine doses providing significant (p<0.01) anti-spasticity effect", "setting": "[2]; dose response 1, 4, 10, 20, 40 mg/kg, at 15-25 min after injection, HIV1-CMV-GAD65-GFP-injected spastic rats", "result": "≥ 4", "unit": "mg/kg"},
      {"measurement": "anti-spasticity effect", "setting": "[2]; systemic tiagabine in spastic rats injected spinally (L2-L5) with GAD65-encoding lentivirus (HIV1-CMV-GAD65-GFP)", "result": "potent, dose-dependent reduction in spasticity; also recorded: potent and tiagabine-dose-dependent alleviation of spasticity; also recorded: potent and significant anti-spasticity effect"},
      {"measurement": "anti-spasticity effect", "setting": "[2]; tiagabine 40 mg/kg i.p. alone (monotherapy)", "result": "without anti-spasticity effect"},
      {"measurement": "anti-spasticity effect", "setting": "[2]; tiagabine 40 mg/kg i.p. followed 15 min later by intrathecal GABA 1 mg", "result": "potent and highly significant anti-spasticity effect"},
      {"measurement": "anti-spasticity effect", "setting": "[2]; tiagabine 40 mg/kg i.p. in spastic rats injected spinally with control HIV1-CMV-GFP lentivirus", "result": "no antispasicity effect; also recorded: without effect"},
      {"measurement": "change in H-wave amplitude", "setting": "[3]; tiagabine 40 mg/kg i.p., HIV1-CMV-GAD65-GFP-injected spastic rats, ketamine-sedated", "result": "significant (p<0.05) reduction"},
      {"measurement": "change in H-reflex amplitudes", "setting": "[3]; tiagabine 40 mg/kg i.p., control HIV1-CMV-GFP-injected spastic rats, up to 90 min, ketamine-sedated", "result": "no change"},
      {"measurement": "H-wave amplitude returned back to baseline by", "setting": "[3]; {}", "result": "≤ 65", "unit": "min"},
      {"measurement": "time window of significant H-wave amplitude reduction after tiagabine injection", "setting": "[3]; {}", "result": "20 to 45", "unit": "min"},
      {"measurement": "spinal extracellular GABA concentration, change after tiagabine", "setting": "[4]; HIV1-CMV-GAD65-GFP lentivirus-injected spastic animals", "result": "significant (p<0.05) increase"},
      {"measurement": "spinal extracellular GABA concentration, change after tiagabine", "setting": "[4]; naive animals", "result": "significant (p<0.05) increase"},
      {"measurement": "effect on upper limb motor function", "setting": "[5]; after tiagabine in spastic rats with lumbar GAD65 lentivirus injection", "result": "No detectable effect"},
      {"measurement": "side effect", "setting": "[5]; either treatment alone (GAD65-LVs injection only or tiagabine only)", "result": "nor had any detectable side effect"},
      {"measurement": "effect on upper extremity motor function", "setting": "[5]; tiagabine 40 mg/kg i.p. + intrathecal GABA 1 mg", "result": "No suppressive effect"},
      {"measurement": "serum half-life", "setting": "[6]", "result": "5 to 8", "unit": "h"},
      {"measurement": "serum half-life", "setting": "[7]", "result": 0.917, "unit": "h"},
      {"measurement": "increase in brain levels of extracellular GABA", "setting": "brain extracellular GABA", "result": "2-3 fold"},
      {"measurement": "anti-spasticity effect in clinical studies", "setting": "spasticity", "result": "only a weak or no anti-spasticity effect"}
    ]},
    {"smiles": "NCCCC(=O)O", "note": "[GABA, gamma-aminobutryic acid]", "values": [
      {"measurement": "anti-spasticity effect", "setting": "[2]; GABA 1 mg intrathecal alone, measured for 60 min", "result": "No significant anti-spasticity effect"},
      {"measurement": "concentrations required to exert receptor-mediated effect", "setting": "[8]", "result": "1 to 2", "unit": "µmol"}
    ]}
  ]
}
